Laboratory results: US20130273176A1, “METHODS AND COMPOSITIONS USEFUL FOR PROMOTING SLEEP IN ANIMALS” (Nestec SA, priority 2010, published 2013)

Assays:
senior dogs [1] = experiment: Actiwatch activity recording, Example 2 (melatonin only, cross-over, AM or PM); type: in vivo, dog; details: for Total Daytime Activity Counts: melatonin only, mean +/- std error
Experimental: Using a cross-over design, all animals were administered a control placebo and a treatment supplement containing melatonin. The animals were senior animals, dogs greater than 10 years of age. There were 4 males and 4 females in each group. For the intervention phases (phases 2 and 4), all animals were administered melatonin in the AM or PM. During the control and cross-over phases (phase 1 and 3, respectively) the animals were administered a placebo comprising methylcellulose contained in a gel capsule in the AM or PM, as appropriate. Each phase lasted 35 days. Starting on day 29 of each phase, the animals locomotor behavioral activity was monitored for 4 consecutive days. The placebo consisted of the carrier (methylcellulose) contained in a gel capsule and was provided during the control phases (Phases 1 and 3) either with the AM or PM feeding, as appropriate to complement the supplement time (luring the following intervention phase. For example, placebo in AM during phase 1, then supplement in AM during phase 2. For phase 2, the first supplement treatment phase, the animals were given supplements of melatonin. Further, for half of the animals, the supplements were in the morning with the AM feeding and half were given in the evening with the PM feeding. Thus, of the 4 males, 2 were administered the melatonin in the morning and two in the evening. During phase 3, the second control phase, delivery of the methylcellulose in a gel capsule was provided either with the AM or PM feeding, as appropriate to cross-over the treatment from phase 1-2. For phase 4, the second supplement treatment phase, the procedure was exactly the same as phase 2, except that for a given animal the supplementation time was switched from phase 2. Thus, if male was administered melatonin in the morning with the AM feeding in phase 2, the male was administered melatonin in the evening with the PM feeding in phase 4. Data analysis of periods indicated no period effect. Therefore, all control data were compiled into a single dataset, as well as all treatment data for each supplement time (AM or PM). Statistical analysis was based on AM control vs. AM treatment, and PM control vs. PM Treatment. Twenty-four hour activity rhythms were assessed for 5 consecutive days and 5 nights for Example 1 or 3 consecutive days and 4 nights for Example 2 using the Actiwatch method (Mini-Mitter® Actiwatch-16® activity monitoring system, Respironics Co. Inc., Bend, Oreg.). The Actiwatch® was placed inside a specially designed animal case and attached to a collar around the dog's neck. The dogs were allowed to follow their usual patterns of activity, test, exercise, and feeding. Daytime activity was recorded to represent the 12 hour light phase from 7 am to 7 pm. […]

senior dogs [2] = experiment: Actiware sleep analysis, Example 2 (melatonin only, cross-over, AM or PM); type: in vivo, dog; details: for Nap Duration / Total Daytime Naps / Total Daytime Sleep Minutes / Total Night-Time Awakenings / Total Night-Time Wake Minutes: melatonin only, mean +/- std error
Experimental: Using a cross-over design, all animals were administered a control placebo and a treatment supplement containing melatonin. The animals were senior animals, dogs greater than 10 years of age. There were 4 males and 4 females in each group. For the intervention phases (phases 2 and 4), all animals were administered melatonin in the AM or PM. During the control and cross-over phases (phase 1 and 3, respectively) the animals were administered a placebo comprising methylcellulose contained in a gel capsule in the AM or PM, as appropriate.
Each phase lasted 35 days. Starting on day 29 of each phase, the animals locomotor behavioral activity was monitored for 4 consecutive days.
The placebo consisted of the carrier (methylcellulose) contained in a gel capsule and was provided during the control phases (Phases 1 and 3) either with the AM or PM feeding, as appropriate to complement the supplement time (luring the following intervention phase. For example, placebo in AM during phase 1, then supplement in AM during phase 2.
For phase 2, the first supplement treatment phase, the animals were given supplements of melatonin. Further, for half of the animals, the supplements were in the morning with the AM feeding and half were given in the evening with the PM feeding. Thus, of the 4 males, 2 were administered the melatonin in the morning and two in the evening.
During phase 3, the second control phase, delivery of the methylcellulose in a gel capsule was provided either with the AM or PM feeding, as appropriate to cross-over the treatment from phase 1-2.
For phase 4, the second supplement treatment phase, the procedure was exactly the same as phase 2, except that for a given animal the supplementation time was switched from phase 2. Thus, if male was administered melatonin in the morning with the AM feeding in phase 2, the male was administered melatonin in the evening with the PM feeding in phase 4.
Data analysis of periods indicated no period effect. Therefore, all control data were compiled into a single dataset, as well as all treatment data for each supplement time (AM or PM). Statistical analysis was based on AM control vs. AM treatment, and PM control vs. PM Treatment.
Twenty-four hour activity rhythms were assessed for 5 consecutive days and 5 nights for Example 1 or 3 consecutive days and 4 nights for Example 2 using the Actiwatch method (Mini-Mitter® Actiwatch-16® activity monitoring system, Respironics Co. Inc., Bend, Oreg.). The Actiwatch® was placed inside a specially designed animal case and attached to a collar around the dog's neck. The dogs were allowed to follow their usual patterns of activity, test, exercise, and feeding.
The Actiware® software was used to generate total daily, light phase (12-h daytime: 7 am-7 pm), and dark phase (12-h night-time: 7 PM-7 AM) total sleep or wake minutes. Light phase naps represent sleep bouts occurring during the 12-h light phase interval. Dark phase wake bouts relied awake activity during the night-time sleep interval and not the 12-h dark phase interval. Total number of bouts and bout duration were determined for both light phase naps and dark phase awakenings.
The total number of sleep minutes recorded during the daytime phase of Example 2 was used to calculate the number of nap bouts and average nap duration during this same period.

COc1ccc2[nH]cc(CCNC(C)=O)c2c1 [Melatonin Only, melatonin]
Total Daytime Activity Counts (senior dogs [1]; AM Supplement): 115,705 +/− 23,249
Total Daytime Activity Counts (senior dogs [1]; PM Supplement, 1 mg/kg BW, 35 days): 114,816 +/− 34,282
reduction in total daytime activity counts compared to dogs on the control food (senior dogs [1]; PM, melatonin 1 mg/kg BW, 35 days, not statistically significant): 16%
daytime activity effect versus placebo group (senior dogs [1]; melatonin supplemented in the AM): not significantly different from the placebo group
Nap Duration (senior dogs [2]; AM Supplement): 4.2 +/− 0.7
Total Daytime Naps (senior dogs [2]; AM Supplement): 58.3 +/− 3.5
Total Daytime Sleep Minutes (senior dogs [2]; AM Supplement): 240 ± 32 min
Total Night-Time Awakenings (senior dogs [2]; AM Supplement): 69.5 +/− 6.9
Total Night-Time Wake Minutes (senior dogs [2]; AM Supplement): 198 ± 35 min
Nap Duration (senior dogs [2]; PM Supplement): 6.4 +/− 1.2
Total Daytime Naps (senior dogs [2]; PM Supplement): 45.5 +/− 4.7
Total Daytime Sleep Minutes (senior dogs [2]; PM Supplement): 264 ± 28 min
Total Night-Time Awakenings (senior dogs [2]; PM Supplement): 52.6 +/− 5.7
Total Night-Time Wake Minutes (senior dogs [2]; PM Supplement): 209 ± 37 min
increase in total daytime sleep minutes compared to dogs on the control food (senior dogs [2]; PM, melatonin 1 mg/kg BW, 35 days, not statistically significant (p=0.25)): 21%
decrease in total number of awakenings during the sleep phase compared to the control group (senior dogs [2]; melatonin alone with the PM meal): 22%
decrease in average nap length compared to control group (senior dogs [2]; melatonin with the AM meal): 31%
increase in the number of awakenings compared to control group (senior dogs [2]; melatonin with the AM meal): 16.6%
increase in the number of naps compared to control group (senior dogs [2]; melatonin with the AM meal): 10%
increase in night-time wake minutes compared to control group (senior dogs [2]; melatonin with the AM meal, not different from control data): 41%
total number of naps during the 12 hour daytime phase compared to the control group (senior dogs [2]; melatonin with the PM meal): did not change at all
increase in average nap duration compared to the control group (senior dogs [2]; melatonin with the PM meal, 12 hour daytime phase): 18.5%
decrease in total night-time wake minutes compared to the control group (senior dogs [2]; melatonin with the PM meal, not statistically significant): 18.6%
